Values joined by “and” are separate entries in the source; they are usually repeats but may differ in a detail not shown here. Equal entries are not always repeated.
Tested on: MDA-MB-468 complex spheroids with HUVEC/MSC, viability
Test: Anticancer human tumor MDA-MB-468 cell line growth inhibition;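 also: spheroids exposed to agents for seven days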;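 as to viability, T/C: 100% = DMSO vehicle control viability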
Conditions: for viability, T/C: stronger effect = lower value
Summary of the method: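 Multicellular complex spheroids of tumor cells with human endothelial cells (HUVEC) and mesenchymal stem cells; the LSD1 inhibitor iadademstat was combined with standard-of-care or investigational agents. Top concentration at or near clinical Cmax, half-log dilutions; final DMSO ≤0.25%.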

[1] = curve of first compound, second compound 0.1 µM
[2] = curve of first compound, second compound 0.316 µM
[3] = curve of first compound, second compound 1 µM
[4] = curve of first compound, second compound 3.16 µM
[5] = curve of first compound, second compound 10 µM
[6] = second compound 0.1 µM, first compound 0.000949 µM
[7] = second compound 0.1 µM, first compound 0.003 µM
[8] = second compound 0.1 µM, first compound 0.00949 µM
[9] = second compound 0.1 µM, first compound 0.03 µM
[10] = second compound 0.1 µM, first compound 0.0949 µM
[11] = second compound 0.1 µM, first compound 0.3 µM
[12] = second compound 0.316 µM, first compound 0.000949 µM
[13] = second compound 0.316 µM, first compound 0.003 µM
[14] = second compound 0.316 µM, first compound 0.00949 µM
[15] = second compound 0.316 µM, first compound 0.03 µM
[16] = second compound 0.316 µM, first compound 0.0949 µM
[17] = second compound 0.316 µM, first compound 0.3 µM
[18] = second compound 1 µM, first compound 0.000949 µM
[19] = second compound 1 µM, first compound 0.003 µM
[20] = second compound 1 µM, first compound 0.00949 µM
[21] = second compound 1 µM, first compound 0.03 µM
[22] = second compound 1 µM, first compound 0.0949 µM
[23] = second compound 1 µM, first compound 0.3 µM
[24] = second compound 3.16 µM, first compound 0.000949 µM
[25] = second compound 3.16 µM, first compound 0.003 µM
[26] = second compound 3.16 µM, first compound 0.00949 µM
[27] = second compound 3.16 µM, first compound 0.03 µM
[28] = second compound 3.16 µM, first compound 0.0949 µM
[29] = second compound 3.16 µM, first compound 0.3 µM
[30] = second compound 10 µM, first compound 0.000949 µM
[31] = second compound 10 µM, first compound 0.003 µM
[32] = second compound 10 µM, first compound 0.00949 µM
[33] = second compound 10 µM, first compound 0.03 µM
[34] = second compound 10 µM, first compound 0.0949 µM
[35] = second compound 10 µM, first compound 0.3 µM

Structure (SMILES)	IC50 [1]	IC50 [2]	IC50 [3]	IC50 [4]	IC50 [5]	viability, T/C [6]	viability, T/C [7]	viability, T/C [8]	viability, T/C [9]	viability, T/C [10]	viability, T/C [11]	viability, T/C [12]	viability, T/C [13]	viability, T/C [14]	viability, T/C [15]	viability, T/C [16]	viability, T/C [17]	viability, T/C [18]	viability, T/C [19]	viability, T/C [20]	also measured
Nc1ncn(C2CC(O)C(CO)S2)c(=O)n1 (configuration not stated) + NC1CCC(NC2CC2c2ccccc2)CC1	88.3 nM	90.5 nM	80.4 nM	65.7 nM	11.6 nM	90.8%	95.7%	76.8%	59.6%	54.5%	35%	89.7%	80%	72.8%	71.3%	45.6%	29.8%	76.5%	87.8%	76.1%	viability, T/C [21]: 64.1%; viability, T/C [22]: 48.5%; viability, T/C [23]: 38.1%; viability, T/C [24]: 81.2%; viability, T/C [25]: 68.3%; viability, T/C [26]: 76%; viability, T/C [27]: 67.5%; viability, T/C [28]: 41.8%; viability, T/C [29]: 33.7%; viability, T/C [30]: 64.6%; viability, T/C [31]: 53%; viability, T/C [32]: 54.5%; viability, T/C [33]: 43%; viability, T/C [34]: 40%; viability, T/C [35]: 31.1%
CCc1c2c(nc3ccc(O)cc13)-c1cc3c(c(=O)n1C2)COC(=O)[C@]3(O)CC + NC1CC1c1ccc(-c2cccc(O)c2)cc1	< 0.949 nM	< 0.949 nM	< 0.949 nM	< 0.949 nM	< 0.949 nM	4.36%	3.78%	2.14%	0.44%	0.43%	0.53%	4.17%	3.69%	1.95%	0.43%	0.4%	0.49%	3.6%	3.54%	2.31%	viability, T/C [21]: 0.52%; viability, T/C [22]: 0.36%; viability, T/C [23]: 0.52%; viability, T/C [24]: 4.14%; viability, T/C [25]: 3.66%; viability, T/C [26]: 2.43%; viability, T/C [27]: 0.36%; viability, T/C [28]: 0.43%; viability, T/C [29]: 0.47%; viability, T/C [30]: 4.14%; viability, T/C [31]: 3.24%; viability, T/C [32]: 2.07%; viability, T/C [33]: 0.38%; viability, T/C [34]: 0.56%; viability, T/C [35]: 0.6%
CC[C@@]1(O)C(=O)OCc2c1cc1n(c2=O)Cc2cc3c(CN(C)C)c(O)ccc3nc2-1																					viability, T/C (compound 0.000316 µM): 69% and 95.9%; viability, T/C (compound 0.001 µM): 39.5% and 54.5%; viability, T/C (compound 0.00316 µM): 16.9% and 14%; viability, T/C (compound 0.01 µM): 10.4% and 12.7%; viability, T/C (compound 0.0316 µM): 7.18% and 6.23%; viability, T/C (compound 0.1 µM): 7.59% and 4.68%; IC50 (curve of compound): 0.662 nM and 1.14 nM
